Measurements as given in patent US20250179000A1 (Sanford Burnham Prebys Medical Discovery Institute, priority 2021, published 2025).

What was measured:
Assay type in all cases: cell-based
Rat mGlu2 = molecular target: T1, Rat mGlu2 (Rattus norvegicus, UniProt P31421); test: mGlu receptor in vitro assay, thallium flux through GIRK channels, rat mGlu2; details: PAM potency with EC20 glutamate
T1 construct: expressed in transfected cells; host or cells: HEK-293 co-expressing GIRK channels
Outline: (§1)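 HEK-293 cells co-expressing rat mGlu2 or mGlu3 and GIRK, dye-loaded with FluoZin2-AM, compound added about 2.5 min before thallium buffer with EC20 glutamate; potency from the 5-15 s fluorescence slope, 10-point 4-parameter fit. Calcium assay at mGlu3 used TREx293 mGlu3 Gα15 cells induced with tetracycline 20 ng/mL for 20 h.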

Rat mGlu3 = molecular target: T2, Rat mGlu3 (Rattus norvegicus, UniProt P31422); test: mGlu receptor in vitro assay (thallium flux through GIRK channels / calcium assay), rat mGlu3; details: PAM potency with EC20 glutamate
T2 construct: expressed in transfected cells; host or cells: HEK-293 co-expressing GIRK channels
Outline: as §1

Human mGlu2 = Human mGlu2 (Homo sapiens, UniProt Q14416); test: mGlu receptor in vitro assay, human mGlu2
Human mGlu3 = Human mGlu3 (Homo sapiens, UniProt Q14832); test: mGlu receptor in vitro assay, human mGlu3
Description: Human Embryonic Kidney (HEK-293) cell lines co-expressing rat mGlu receptors 2, 3, 4, 6, 7 or 8 and G protein-coupled inwardly-rectifying potassium (GIRK) channels were grown in Growth Media containing 45% DMEM, 45% F-12, 10% FBS, 20 mM HEPES, 2 mM L-glutamine, antibiotic/antimycotic, non-essential amino acids, 700 μg/mL G418, and 0.6 μg/ml puromycin at 37° C. in the presence of 5% CO2. […] All cell culture reagents were purchased from Invitrogen Corp. (Carlsbad, CA) unless otherwise noted. Calcium assays were used to assess activity of compounds at mGlu1 and mGlu5, as previously described in Engers et al (J. Med. Chem. 2009, 52, 4115-4118). Calcium assays at mGlu3 were performed as described for mGlu5 with the exception that TREx293 mGlu3 Gα15 cells were treated with tetracycline at 20 ng/mL for 20 h prior to assay.
Briefly, cells were plated into 384-well, black-walled, clear-bottomed poly-D-lysine-coated plates at a density of 15,000 cells/20 μL/well in DMEM containing 10% dialyzed FBS, 20 mM HEPES, and 100 units/mL penicillin/streptomycin (assay media). Plated cells were incubated overnight at 37° C. in the presence of 5% CO2. The following day, the medium was exchanged from the cells to assay buffer [Hanks' balanced salt solution (Invitrogen) containing 20 mM HEPES, pH 7.3] using an ELX405 microplate washer (BioTek), leaving 20 μL/well, followed by the addition of 20 μL/well FluoZin2-AM (330 nM final concentration) indicator dye (Invitrogen; prepared as a stock in DMSO and mixed in a 1:1 ratio with Pluronic acid F-127) in assay buffer. Cells were incubated for 1 h at room temperature, and the dye exchanged to assay buffer using an ELX405, leaving 20 μL/well. Test compounds were diluted to 2 times their final desired concentration in assay buffer (0.3% DMSO final concentration). Agonists were diluted in thallium buffer [125 mM sodium bicarbonate (added fresh the morning of the experiment), 1 mM magnesium sulfate, 1.8 mM calcium sulfate, 5 mM glucose, 12 mM thallium sulfate, and 10 mM HEPES, pH 7.3] at 5 times the final concentration to be assayed. Cell plates and compound plates were loaded onto a kinetic imaging plate reader (FDSS 6000 or 7000; Hamamatsu Corporation, Bridgewater, NJ). Appropriate baseline readings were taken (10 images at 1 Hz; excitation, 470±20 nm; emission, 540±30 nm) and test compounds were added in a 20 μL volume and incubated for approximately 2.5 min before the addition of 10 μL of thallium buffer with or without agonist. After the addition of agonist, data were collected for approximately an additional 2.5 min. Data were analyzed using Excel (Microsoft Corp, Redmond, WA). The slope of the fluorescence increase beginning 5 s after thallium/agonist addition and ending 15 s after thallium/agonist addition was calculated, corrected to vehicle and maximal agonist control slope values, and plotted in using either XLfit (ID Business Solutions Ltd) or Prism software (GraphPad Software, San Diego, CA) to generate concentration-response curves. Potencies were calculated from fits using a four-point parameter logistic equation. For concentration-response curve experiments, compounds were serially diluted 1:3 into 10-point concentration response curves and were transferred to daughter plates using an Echo acoustic plate reformatter (Labcyte, Sunnyvale, CA). Test compounds were applied and followed by EC20 concentrations of glutamate.

Sequence of Human mGlu2 (Q14416 19-872): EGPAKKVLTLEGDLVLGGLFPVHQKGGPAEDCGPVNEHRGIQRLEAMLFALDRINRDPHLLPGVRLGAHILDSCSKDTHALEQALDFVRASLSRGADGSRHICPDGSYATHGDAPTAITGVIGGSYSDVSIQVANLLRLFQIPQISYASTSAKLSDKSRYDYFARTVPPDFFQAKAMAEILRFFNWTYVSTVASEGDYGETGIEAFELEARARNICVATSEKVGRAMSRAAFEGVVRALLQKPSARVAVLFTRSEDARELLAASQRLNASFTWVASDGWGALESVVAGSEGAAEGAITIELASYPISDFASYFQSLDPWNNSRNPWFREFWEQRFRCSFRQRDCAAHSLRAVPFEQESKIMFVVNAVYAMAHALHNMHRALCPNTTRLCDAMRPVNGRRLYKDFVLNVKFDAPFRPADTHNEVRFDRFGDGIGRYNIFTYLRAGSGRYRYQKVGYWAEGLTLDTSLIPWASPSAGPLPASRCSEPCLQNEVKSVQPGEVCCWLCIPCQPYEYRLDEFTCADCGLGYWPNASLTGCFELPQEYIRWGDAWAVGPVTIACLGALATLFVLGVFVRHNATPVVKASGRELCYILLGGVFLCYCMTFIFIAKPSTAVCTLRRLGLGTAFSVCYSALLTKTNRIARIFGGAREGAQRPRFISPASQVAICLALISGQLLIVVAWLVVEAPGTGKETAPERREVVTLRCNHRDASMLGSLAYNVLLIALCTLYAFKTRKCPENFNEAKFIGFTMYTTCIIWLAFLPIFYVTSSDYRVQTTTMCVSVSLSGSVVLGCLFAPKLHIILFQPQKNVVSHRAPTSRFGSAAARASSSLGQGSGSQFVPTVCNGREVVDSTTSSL
T2 sequence (P31422 23-879): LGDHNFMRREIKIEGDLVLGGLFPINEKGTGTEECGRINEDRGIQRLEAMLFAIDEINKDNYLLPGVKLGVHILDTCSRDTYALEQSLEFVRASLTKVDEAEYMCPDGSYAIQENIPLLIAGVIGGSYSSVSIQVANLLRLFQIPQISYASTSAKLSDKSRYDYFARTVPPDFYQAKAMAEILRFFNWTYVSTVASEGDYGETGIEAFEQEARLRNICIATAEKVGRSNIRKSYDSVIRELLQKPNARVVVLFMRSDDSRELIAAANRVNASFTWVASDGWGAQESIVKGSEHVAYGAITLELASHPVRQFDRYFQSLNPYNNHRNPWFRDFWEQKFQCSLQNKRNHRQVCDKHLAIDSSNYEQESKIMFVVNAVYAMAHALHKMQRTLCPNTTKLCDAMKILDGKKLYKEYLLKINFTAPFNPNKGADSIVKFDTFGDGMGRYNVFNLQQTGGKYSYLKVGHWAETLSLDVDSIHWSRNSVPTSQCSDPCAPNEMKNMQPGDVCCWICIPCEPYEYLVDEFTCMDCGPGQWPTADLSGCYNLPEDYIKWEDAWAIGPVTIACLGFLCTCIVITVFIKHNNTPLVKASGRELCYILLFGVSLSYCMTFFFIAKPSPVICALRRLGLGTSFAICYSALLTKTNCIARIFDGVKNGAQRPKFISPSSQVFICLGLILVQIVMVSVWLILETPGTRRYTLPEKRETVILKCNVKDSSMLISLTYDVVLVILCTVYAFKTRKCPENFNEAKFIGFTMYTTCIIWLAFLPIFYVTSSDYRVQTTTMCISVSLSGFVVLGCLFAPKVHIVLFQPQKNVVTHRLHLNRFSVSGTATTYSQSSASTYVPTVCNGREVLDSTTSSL
T1 sequence (P31421 19-872): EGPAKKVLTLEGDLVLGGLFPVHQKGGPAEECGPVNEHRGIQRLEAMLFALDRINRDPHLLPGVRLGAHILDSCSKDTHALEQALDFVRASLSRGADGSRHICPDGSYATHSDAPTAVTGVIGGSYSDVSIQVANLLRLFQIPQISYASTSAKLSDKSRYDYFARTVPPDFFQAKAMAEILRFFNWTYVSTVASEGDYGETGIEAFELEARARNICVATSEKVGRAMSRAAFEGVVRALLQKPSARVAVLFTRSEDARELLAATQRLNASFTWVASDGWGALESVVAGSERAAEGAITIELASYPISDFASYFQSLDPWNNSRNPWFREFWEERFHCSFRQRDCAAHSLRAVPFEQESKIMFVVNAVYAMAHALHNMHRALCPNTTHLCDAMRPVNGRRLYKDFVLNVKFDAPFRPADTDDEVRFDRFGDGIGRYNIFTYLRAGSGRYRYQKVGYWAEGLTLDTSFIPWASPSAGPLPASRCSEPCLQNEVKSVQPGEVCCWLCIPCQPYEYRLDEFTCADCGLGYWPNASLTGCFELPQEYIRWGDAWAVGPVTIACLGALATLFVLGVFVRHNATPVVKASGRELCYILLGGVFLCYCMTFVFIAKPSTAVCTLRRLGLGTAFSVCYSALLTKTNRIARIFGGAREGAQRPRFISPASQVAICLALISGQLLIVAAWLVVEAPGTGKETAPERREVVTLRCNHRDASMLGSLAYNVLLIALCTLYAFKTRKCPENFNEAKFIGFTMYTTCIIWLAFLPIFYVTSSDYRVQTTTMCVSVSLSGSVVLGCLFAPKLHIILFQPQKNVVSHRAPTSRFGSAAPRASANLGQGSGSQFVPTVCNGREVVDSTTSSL
Sequence of Human mGlu3 (Q14832 23-879): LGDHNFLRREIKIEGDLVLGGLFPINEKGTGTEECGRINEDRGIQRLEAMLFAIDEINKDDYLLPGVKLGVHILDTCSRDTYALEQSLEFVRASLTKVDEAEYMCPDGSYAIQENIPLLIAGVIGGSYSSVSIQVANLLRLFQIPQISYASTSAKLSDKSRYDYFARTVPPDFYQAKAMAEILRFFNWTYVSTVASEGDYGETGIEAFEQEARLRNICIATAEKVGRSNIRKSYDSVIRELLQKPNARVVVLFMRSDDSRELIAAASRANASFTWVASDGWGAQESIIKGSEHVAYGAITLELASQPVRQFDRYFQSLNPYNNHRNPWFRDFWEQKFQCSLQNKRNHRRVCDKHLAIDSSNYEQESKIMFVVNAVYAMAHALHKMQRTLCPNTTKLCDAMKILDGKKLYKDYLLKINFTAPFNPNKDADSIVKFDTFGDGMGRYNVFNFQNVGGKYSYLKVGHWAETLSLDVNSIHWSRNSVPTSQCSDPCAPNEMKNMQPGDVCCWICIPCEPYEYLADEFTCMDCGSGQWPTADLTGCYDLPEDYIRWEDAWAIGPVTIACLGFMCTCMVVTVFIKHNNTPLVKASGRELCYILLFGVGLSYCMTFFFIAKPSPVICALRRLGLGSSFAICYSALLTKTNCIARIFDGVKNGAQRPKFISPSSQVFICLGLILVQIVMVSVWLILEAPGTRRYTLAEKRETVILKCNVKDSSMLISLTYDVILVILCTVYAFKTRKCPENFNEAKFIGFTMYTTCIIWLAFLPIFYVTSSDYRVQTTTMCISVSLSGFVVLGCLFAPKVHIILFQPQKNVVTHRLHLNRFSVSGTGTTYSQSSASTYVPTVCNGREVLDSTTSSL

| SMILES | EC50 (Rat mGlu2) [nM] | EC50 (Rat mGlu3) [nM] | EC50 (Human mGlu2) [nM] | EC50 (Human mGlu3) [nM] |
| --- | --- | --- | --- | --- |
| COc1ccc(C(=O)O)cc1OC/C=C/COc1ccc(C(=O)CC(C)(C)C)c(O)c1C [Example 4, (E)-3-((4-(4-(3,3-Dimethylbutanoyl)-3-hydroxy-2-methylphenoxy)but-2-en-1-yl)oxy)-4-methoxybenzoic acid] | 67 | 47 | 56 | 61 |
| CCCC(=O)c1ccc(OCCOCCOc2ccc(C(=O)O)c(Cl)c2)c(C)c1O [Example 41, 4-{2-[2-(4-Butanoyl-3-hydroxy-2-methylphenoxy)ethoxy]ethoxy}-2-chlorobenzoic acid] | 15 | 1000 | 8 | 886 |
| Cc1c(OCC#CCOc2ccc(C(=O)CC(C)(C)C)c(O)c2C)cccc1C(=O)O [Example 22, 3-{4-[4-(3,3-Dimethylbutanoyl)-3-hydroxy-2-methylphenoxy]but-2-ynyloxy}-2-methylbenzoic acid] | 16 | 20 | 4 | 39 |
| CCCC(=O)c1ccc(OCCC(C)(C)CCOc2cccc(C(=O)O)c2C)c(C)c1O [Example 30, 3-[5-(4-Butanoyl-3-hydroxy-2-methylphenoxy)-3,3-dimethylpentyloxy]-2-methylbenzoic acid] | 265 | > 10000 | 55 | > 10000 |
| CCCC(=O)c1ccc(OCCOCCOc2ccc(C(=O)O)cc2OC)c(C)c1O [Example 5, 4-(2-(2-(4-Butyryl-3-hydroxy-2-methylphenoxy)ethoxy)ethoxy)-3-methoxybenzoic acid] | 27 | > 10000 | 26 | > 10000 |
| CCCC(=O)c1ccc(OCCCCOc2ccc(C(=O)O)c(Cl)c2)c(C)c1O [compound 101, 4-[4-(4-Butanoyl-3-hydroxy-2-methylphenoxy)butoxy]-2-chlorobenzoic acid] | 33 | > 30000 | 16 | > 30000 |
| COC(=O)N(CCOc1cc(C(=O)O)ccc1OC)CCOc1ccc(C(=O)CC(C)(C)C)c(O)c1C [Example 24, 3-[2-(N-{2-[4-(3,3-Dimethylbutanoyl)-3-hydroxy-2-methylphenoxy]ethyl}methoxycarbonylamino)ethoxy]-4-methoxybenzoic acid] | 176 | 649 | 82 | 462 |
| COc1ccc(C(=O)O)cc1OCCCCOc1ccc(C(=O)c2ccccc2)c(O)c1C [compound 59, 3-(4-(4-Benzoyl-3-hydroxy-2-methylphenoxy)butoxy)-4-methoxybenzoic acid] | 182 | 222 | 325 | 408 |

The remaining lines, values ahead:

| EC50 (Rat mGlu2) [nM] | EC50 (Rat mGlu3) [nM] | EC50 (Human mGlu2) [nM] | EC50 (Human mGlu3) [nM] | SMILES |
| --- | --- | --- | --- | --- |
| 36 | > 30000 | 25 | > 30000 | CCCC(=O)c1ccc(OCCCCCOc2ccc(Cl)c(C(=O)O)c2)c(C)c1O [Example 52, 5-[5-(4-Butanoyl-3-hydroxy-2-methylphenoxy)pentyloxy]-2-chlorobenzoic acid] |
| 92 | 855 | 203 | 1480 | Cc1c(C(=O)O)cccc1-c1cccc(COc2ccc(C(=O)CC(C)(C)C)c(O)c2C)c1 [compound 160, 3′-((4-(3,3-Dimethylbutanoyl)-3-hydroxy-2-methylphenoxy)methyl)-2-methyl-[1,1′-biphenyl]-3-carboxylic acid] |
| 49 | 28 | 33 | 23 | COc1ccc(C(=O)O)cc1-c1cncc(COc2ccc(C(=O)C3CC3)c(O)c2C)n1 [compound 69, 3-(6-((4-(Cyclopropanecarbonyl)-3-hydroxy-2-methylphenoxy)methyl)pyrazin-2-yl)-4-methoxybenzoic acid] |
| 27 | 552 | 28 | 371 | CCCC(=O)c1ccc(OCCSCCOc2ccc(C(=O)O)c(Cl)c2)c(C)c1O [Example 42] |
